Measured values as given in patent US7674789B2, “Compounds” (Glaxo Group Limited, priority 2005, dated 2010).
Where a name gives a salt, the structure may show the parent alone.

Tested on: influx of neutrophils to the lung in LPS-challenged rats
Experiment: Rat LPS neutrophilia model
Assay type: in vivo
Settings: intratracheal compound 15 min-24 hours before LPS aerosol (100 ug/ml, 15 min), lavage 4 hours later, in at least one of the range of conditions tested
Description: Rat LPS Neutrophilia Model
The effect of compounds on the influx of neutrophils to the lung in LPS-challenged rats is evaluated as follows. The test compound is suspended in one of the following solutions: 0.5% tween 80/PBS, 0.5% tween 80/saline, 10% EtOH/saline (with pH adjusted to 2.0, or 8.0 with HCl, or unadjusted), Saline @ pH 2.0, 6.5 or 8.0, 0.5% Tragacanth, 1% DMSO/20% Encapsin/Saline, or acidified 5% Tragacanth. The suspension process may be aided by the use of a glass homogenizer. For intratracheal administration, the animals are anesthetized with inhaled isoflurane and placed in a supine position, the trachea is intubated with a steel gavage needle (1.5 inch, 22 gauge, small ball) or a Penn-Century Microsprayer Aerosolizer (model IA-1B) and 200 ul of dosing solution is delivered. The animals are visually monitored during the recovery process, which typically occurs within two minutes.
Rats treated with compound or vehicle (15 min-24 hours pretreatment) are exposed to an LPS aerosol (100 ug/ml) for 15 min. Four hours later the rats are euthanized with pentobarbital (100 mg/kg, i.p.) and the airways are lavaged with 5 washes of 5 ml of phosphate buffered saline. The harvested cells are stained (Diffquick) and counted to determine total and differential cell data. In a typical study, macrophages represent 40-70% of the total cells, and polymorphonuclear cells 30-60% of the total cells. Inhibition of neutrophil levels relative to no compound controls is calculated based on the differential counts.
The assay has varying conditions, such as concentration, pretreat time, form of the compound (crystalline, amorphous, salts, micronised), and a wet or dry application of the compound. The data is obtained as % inhibition using a particular concentration and pretreat time.

CNC(=O)c1ccc(C)c(-c2nc(N3CCC(N4CCCCC4)CC3)nc3c2CNC(=O)N3c2c(F)cccc2F)c1 [Example 176, 3-[2-(1,4′-bipiperidin-1′-yl)-8-(2,6-difluorophenyl)-7-oxo-5,6,7,8-tetrahydropyrimido[4,5-d]pyrimidin-4-yl]-N,4-dimethylbenzamide] was tested, and the “inhibition of neutrophilia (neutrophil influx to the lung)” value (from here on “inhibition of neutrophilia”) was “statistically nonsignificant inhibition of neutrophilia”.

For COc1ccc(NC(=O)c2ccc(C)c(-c3nc(NCCN(C)C)nc4c3CNC(=O)N4c3c(F)cccc3F)c2)cn1 [Example 140, 3-(8-(2,6-difluorophenyl)-2-{[2-(dimethylamino)ethyl]amino}-7-oxo-5,6,7,8-tetrahydropyrimido[4,5-d]pyrimidin-4-yl)-4-methyl-N-[6-(methyloxy)-3-pyridinyl]benzamide], the “inhibition of neutrophilia” value was “statistically significant inhibition of neutrophilia”.

With Cc1ccc(C(=O)Nc2ccc(F)cc2)cc1-c1nc(N2CCC(N3CCCCC3)CC2)nc2c1CNC(=O)N2c1c(F)cccc1F [87(b), 3-[2-(1,4′-bipiperidin-1′-yl)-8-(2,6-difluorophenyl)-7-oxo-5,6,7,8-tetrahydropyrimido[4,5-d]pyrimidin-4-yl]-N-(4-fluorophenyl)-4-methylbenzamide] the “inhibition of neutrophilia” value was “statistically nonsignificant inhibition of neutrophilia”.

CSc1ccc(NC(=O)c2ccc(C)c(-c3nc(NCCN(C)C)nc4c3CNC(=O)N4c3c(F)cccc3F)c2)cc1 [Example 127, 3-(8-(2,6-difluorophenyl)-2-{[2-(dimethylamino)ethyl]amino}-7-oxo-5,6,7,8-tetrahydropyrimido[4,5-d]pyrimidin-4-yl)-4-methyl-N-[4-(methylthio)phenyl]benzamide] was tested, and the “inhibition of neutrophilia” value was “statistically significant inhibition of neutrophilia”.

Cc1ccc(C(=O)NC(C)C)cc1-c1nc(N2CCC(N3CCN(C)CC3)CC2)nc2c1CNC(=O)N2c1c(F)cccc1F [Example 72, 3-{8-(2,6-difluorophenyl)-2-[4-(4-methyl-1-piperazinyl)-1-piperidinyl]-7-oxo-5,6,7,8-tetrahydropyrimido[4,5-d]pyrimidin-4-yl}-4-methyl-N-(1-methylethyl)benzamide] was tested, and the “inhibition of neutrophilia” value was “statistically significant inhibition of neutrophilia”.

For Cc1ccc(C(=O)NCc2ccccc2)cc1-c1nc(NCCCN(C)C)nc2c1CNC(=O)N2c1c(F)cccc1F [Example 151, 3-(8-(2,6-difluorophenyl)-2-{[3-(dimethylamino)propyl]amino}-7-oxo-5,6,7,8-tetrahydropyrimido[4,5-d]pyrimidin-4-yl)-4-methyl-N-(phenylmethyl)benzamide], the “inhibition of neutrophilia” value was “statistically nonsignificant inhibition of neutrophilia”.

For Cc1ccc(C(=O)NC(C)C)cc1-c1nc(NCCCN(C)C)nc2c1CNC(=O)N2c1c(F)cccc1F [Example 40, 3-(8-(2,6-difluorophenyl)-2-{[3-(dimethylamino)propyl]amino}-7-oxo-5,6,7,8-tetrahydropyrimido[4,5-d]pyrimidin-4-yl)-4-methyl-N-(1-methylethyl)benzamide], the “inhibition of neutrophilia” value was “statistically significant inhibition of neutrophilia”.

CCN(CC)CCCNc1nc(-c2cc(C(=O)Nc3ccc(F)cc3)ccc2C)c2c(n1)N(c1c(F)cccc1F)C(=O)NC2 [Example 43, 3-[2-{[3-(diethylamino)propyl]amino}-8-(2,6-difluorophenyl)-7-oxo-5,6,7,8-tetrahydropyrimido[4,5-d]pyrimidin-4-yl]-N-(4-fluorophenyl)-4-methylbenzamide] was tested, and the “inhibition of neutrophilia” value was “inactive”.

With Cc1ccc(C(=O)Nc2ccc(F)cc2)cc1-c1nc(N(C)CCN(C)C)nc2c1CNC(=O)N2c1c(F)cccc1F [Example 32, 3-{8-(2,6-difluorophenyl)-2-[[2-(dimethylamino)ethyl](methyl)amino]-7-oxo-5,6,7,8-tetrahydropyrimido[4,5-d]pyrimidin-4-yl}-N-(4-fluorophenyl)-4-methylbenzamide] the “inhibition of neutrophilia” value was “statistically nonsignificant inhibition of neutrophilia”.

For CN(C)CCNc1nc(-c2cccc(C(=O)Nc3ccccc3)c2)c2c(n1)N(c1c(F)cccc1F)C(=O)NC2 [Example 91, 3-(8-(2,6-difluorophenyl)-2-{[2-(dimethylamino)ethyl]amino}-7-oxo-5,6,7,8-tetrahydropyrimido[4,5-d]pyrimidin-4-yl)-N-phenylbenzamide], the “inhibition of neutrophilia” value was “statistically significant inhibition of neutrophilia”.

Cc1ccc(C(=O)Nc2ccc(C)c(-c3nc(OC(C)C)nc4c3CNC(=O)N4c3c(F)cccc3F)c2)cc1F [Example 26, N-(3-{8-(2,6-difluorophenyl)-2-[(1-methylethyl)oxy]-7-oxo-5,6,7,8-tetrahydropyrimido[4,5-d]pyrimidin-4-yl}-4-methylphenyl)-3-fluoro-4-methylbenzamide] was tested, and the “inhibition of neutrophilia” value was “inactive”.

In the case of CN(C)CCNc1nc(-c2cccc(C(=O)Nc3nccs3)c2)c2c(n1)N(c1c(F)cccc1F)C(=O)NC2 [Example 92, 3-(8-(2,6-difluorophenyl)-2-{[2-(dimethylamino)ethyl]amino}-7-oxo-5,6,7,8-tetrahydropyrimido[4,5-d]pyrimidin-4-yl)-N-1,3-thiazol-2-ylbenzamide], the “inhibition of neutrophilia” value was “statistically significant inhibition of neutrophilia”.

In the case of CNC(=O)c1ccc(C)c(-c2nc(N3CCC(N4CCCC4)CC3)nc3c2CNC(=O)N3c2c(F)cccc2F)c1 [Example 175, 3-{8-(2,6-difluorophenyl)-7-oxo-2-[4-(1-pyrrolidinyl)-1-piperidinyl]-5,6,7,8-tetrahydropyrimido[4,5-d]pyrimidin-4-yl}-N,4-dimethylbenzamide], the “inhibition of neutrophilia” value was “inactive”.

In the case of Cc1ccc(C(=O)NC(C)C)cc1-c1nc(N2CCC(N3CCCCC3)CC2)nc2c1CNC(=O)N2c1c(F)cccc1F [Example 57, 3-[2-(1,4′-bipiperidin-1′-yl)-8-(2,6-difluorophenyl)-7-oxo-5,6,7,8-tetrahydropyrimido[4,5-d]pyrimidin-4-yl]-4-methyl-N-(1-methylethyl)benzamide], the “inhibition of neutrophilia” value was “statistically nonsignificant inhibition of neutrophilia”.

Cc1ccc(C(=O)NCc2ccccc2)cc1-c1nc(N(C)CCCN(C)C)nc2c1CNC(=O)N2c1c(F)cccc1F [Example 17, 3-{8-(2,6-Difluorophenyl)-2-[[3-(dimethylamino)propyl](methyl)amino]-7-oxo-5,6,7,8-tetrahydropyrimido[4,5-d]pyrimidin-4-yl}-4-methyl-N-(phenylmethyl)benzamide] was tested, and the “inhibition of neutrophilia” value was “statistically nonsignificant inhibition of neutrophilia”.

Cc1ccc(C(=O)NC(C)C)cc1-c1nc(N2CCC(N3CCC(C)CC3)CC2)nc2c1CNC(=O)N2c1c(F)cccc1F [Example 70, 3-[8-(2,6-difluorophenyl)-2-(4-methyl-1,4′-bipiperidin-1′-yl)-7-oxo-5,6,7,8-tetrahydropyrimido[4,5-d]pyrimidin-4-yl]-4-methyl-N-(1-methylethyl)benzamide] was tested, and the “inhibition of neutrophilia” value was “statistically significant inhibition of neutrophilia”.

In the case of Cc1ccc(C(=O)Nc2nccs2)cc1-c1nc(N(C)CCCN(C)C)nc2c1CNC(=O)N2c1c(F)cccc1F [Example 124, 3-{8-(2,6-difluorophenyl)-2-[[3-(dimethylamino)propyl](methyl)amino]-7-oxo-5,6,7,8-tetrahydropyrimido[4,5-d]pyrimidin-4-yl}-4-methyl-N-1,3-thiazol-2-ylbenzamide], the “inhibition of neutrophilia” value was “statistically nonsignificant inhibition of neutrophilia”.

Cc1ccc(C(=O)Nc2ccc(F)cc2)cc1-c1nc(NCCN(C)C)nc2c1CNC(=O)N2c1c(F)cccc1F [8(c), 3-(8-(2,6-difluorophenyl)-2-{[2-(dimethylamino)ethyl]amino}-7-oxo-5,6,7,8-tetrahydropyrimido[4,5-d]pyrimidin-4-yl)-N-(4-fluorophenyl)-4-methylbenzamide] was tested, and the “inhibition of neutrophilia” value was “statistically significant inhibition of neutrophilia”.

With Cc1ccc(C(=O)NCc2ccccc2)cc1-c1nc(N2CCN(C)CC2)nc2c1CNC(=O)N2c1c(F)cccc1F [Example 148, 3-[8-(2,6-difluorophenyl)-2-(4-methyl-1-piperazinyl)-7-oxo-5,6,7,8-tetrahydropyrimido[4,5-d]pyrimidin-4-yl]-4-methyl-N-(phenylmethyl)benzamide] the “inhibition of neutrophilia” value was “statistically nonsignificant inhibition of neutrophilia”.

Cc1ccc(C(=O)NC(C)C)cc1-c1nc(N2CCCN(C)CC2)nc2c1CNC(=O)N2c1c(F)cccc1F [Example 179, 3-[8-(2,6-difluorophenyl)-2-(4-methylhexahydro-1H-1,4-diazepin-1-yl)-7-oxo-6,7,8-tetrahydropyrimido[4,5-d]pyrimidin-4-yl]-4-methyl-N-(1-methylethyl)benzamide trifluoroacetate] was tested, and the “inhibition of neutrophilia” value was “statistically nonsignificant inhibition of neutrophilia”.
